Results published in US10889563B2, “Deoxyuridine triphosphatase inhibitors” (University of Southern California, priority 2013, dated 2021).

Assays:
HCT116 cells [1] = test: Colony formation assay, HCT116; type: cell-based
Method: Colony forming assay showing the ability of colon (SW620, HCT 116), non-small cell lung (A549, H460, H1299 and H358) and breast (MCF7) cancer cells to survive and proliferate following transient 24 hour exposure to single agent PCI 1013, FUdR and combinations. Specifically, cells were seeded at densities between 50 and 100 cells/well in 24-well plates. Twenty-four hours later, cells were treated with increasing concentrations of PCI 10213, a fixed dose of FUdR and combinations of these. After 24 hours, drug was removed, cells were rinsed and allowed to outgrow for 10-14 days. At the conclusion of the outgrowth, cells were fixed in 60% ice cold methanol and stained with 0.1% crystal violet, scanned and counted. Data is presented as percentage of untreated controls (mean±SD). Fraction affected and combination indexes were calculated according to the method of Chou and Talalay where <1 is indicative of a synergistic drug interaction. […]
(§1) In colorectal cancer cells, concentrations of PCI 10213 ranging from 3.1 μmol/L to 50 μmol/L were combined with 0.5 μmol/L FUdR in HCT116 cells and 1 μmol/L FUdR in SW620 cells.

SW620 cells [2] = test: Colony formation assay, SW620; type: cell-based; settings: SW620; PCI 10213 3.1 to 50 μmol/L or FUdR 1 μmol/L alone
Method: (§2) Colony forming assay showing the ability of colon (SW620, HCT 116), non-small cell lung (A549, H460, H1299 and H358) and breast (MCF7) cancer cells to survive and proliferate following transient 24 hour exposure to single agent PCI 1013, FUdR and combinations. Specifically, cells were seeded at densities between 50 and 100 cells/well in 24-well plates. Twenty-four hours later, cells were treated with increasing concentrations of PCI 10213, a fixed dose of FUdR and combinations of these. After 24 hours, drug was removed, cells were rinsed and allowed to outgrow for 10-14 days. At the conclusion of the outgrowth, cells were fixed in 60% ice cold methanol and stained with 0.1% crystal violet, scanned and counted. Data is presented as percentage of untreated controls (mean±SD). Fraction affected and combination indexes were calculated according to the method of Chou and Talalay where <1 is indicative of a synergistic drug interaction.
as §1

[3] = tested on: MCF-7 breast cancer cell line; test: Colony formation assay, MCF-7; type: cell-based; settings: MCF-7, 0.5 μmol/L
Method: as §2
(§3) Subsequently, increasing concentrations of PCI 10213 were combined with a fixed dose of FUdR to evaluate the combined drug effect. In NSCLC cells, concentrations of PCI 10213 ranging from 3.1 μmol/L to 25 μmol/L were combined with 1 μmol/L FUdR. […] The effectiveness of this combination was pronounced in A549 and H460 cells where 12.5 and 25 μmol/L PCI 10213 combined with 1 μmol/L FUdR reduced cell viability by >95% compared to vehicle-treated controls.

[4] = tested on: HCT-8 colorectal cell line model; test: Colony formation assay, HCT-8; type: cell-based; settings: HCT-8, 1 μmol/L
Method: as §2
Colony forming assays were subsequently performed to evaluate the effectiveness of additional PCI compounds alone and in combination with FUdR at reducing cancer cell viability in the HCT-8 colorectal cell line model. […] Subsequently, increasing concentrations of PCI compounds were combined with a fixed dose of 1 μmol/L FUdR to evaluate the combined drug effect.

[5] = tested on: colorectal (HCT116), breast (MCF-7) and non-small cell lung (H1299, A549, H358 and H460) cell line models; test: Colony formation assay, all cell lines evaluated; type: cell-based
Method: as §2, §3

[6] = tested on: NSCLC cells (H1299, A549, H358 and H460); test: Colony formation assay, NSCLC cells; type: cell-based; settings: FUdR printed as One mol/L, vs vehicle-treated controls
Method: as §2, §3

HCT116 cells [7] = test: Colony formation assay, HCT116; type: cell-based; settings: HCT116, 0.5 to 5 μmol/L (Example 23)
A549 cells [8] = test: Colony formation assay, A549; type: cell-based; settings: A549, 25 and 50 μmol/L single agent
Method: as §2, §3

H460 cells = test: Colony formation assay, H460; type: cell-based; settings: H460, 25 and 50 μmol/L single agent
Method: as §2, §3

HCT116 cells [9] = tested on: HCT116 cells
HCT116 cells [10] = test: cells; settings: Homo sapiens, HCT-116, read-out: growth inhibition as a single agent
A549 cells [11] = test: MTS growth inhibition assay, A549; settings: A549, 72 hours
Method: (§4) The Cell Titer^96 AQueous MTS assay (Promega) was carried out according to the manufacturers guidelines. […] The combination effect was determined by the combination index (CI) method utilizing Calcusyn software (Biosoft, Ferguson, Mo.). Fraction affected (FA) was calculated from the percent growth inhibition: FA=(100−% growth inhibition)/100. CI values <1, synergism; 1-1.2, additive and >1.2, antagonism.
(§5) The NSCLC cell lines A549 and H1299 were exposed to increasing concentrations of each agent for 72 hours and growth inhibition was directly compared to vehicle-treated controls.

SW620 cells [12] = test: MTS growth inhibition assay, SW620
Method: as §4
HCT116 and SW620 cells were exposed to increasing concentrations of each agent for 72 hours and growth inhibition was directly compared to vehicle-treated controls.

H1299 cells = test: MTS growth inhibition assay, H1299; settings: H1299, 72 hours, 100 μmol/L single agent
Method: as §4, §5

[13] = target: T1, Recombinant human deoxyuridine nucleotidohydrolase (dUTPase) (Homo sapiens, UniProt P33316); test: Fluorescence-based dUTPase inhibition assay (Example 19; 5 ng dUTPase, 8 min at 37° C.)
T1 sequence (P33316 1-164 isoform P33316-2): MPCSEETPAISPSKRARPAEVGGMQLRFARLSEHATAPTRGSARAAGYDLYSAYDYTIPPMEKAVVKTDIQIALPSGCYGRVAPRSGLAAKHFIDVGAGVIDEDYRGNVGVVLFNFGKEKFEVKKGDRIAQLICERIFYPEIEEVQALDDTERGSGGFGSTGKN
Excerpt: All drugs stocks were aliquoted and diluted as appropriate prior to use. The oligonucelotide primer, templates and fluorophore- and quencher-labeled detection probes are synthesized by Integrated DNA Technologies (Coralville, Iowa), subjected to polyacrylamide gel electrophoresis purification and reconstituted in Omnipur sterile nuclease-free water (EMD Chemicals USA, Gibbstown N.J.) at a stock concentration of 100 μmol/L. The two non-emissive (dark) quenching molecules incorporated into the detection probes include the Iowa black fluorescein quencher (IBFQ; absorption max 531 nm) and ZEN (non-abbreviation; absorption max 532 nm). The fluorescent label utilized was 6-FAM (5′-carboxyfluorescein; excitation max.=494 nm, emission max.=520 nm). Probes were further diluted to a working stock of 10 μmol/L and aliquoted to avoid repeated freeze/thaw cycles. AmpliTaq Gold DNA Polymerase, GeneAmp 10×PCR Buffer 2, MgCl2 and MicroAmp Optical 96-well Reaction Plates were purchased from Applied Biosystems (Carlsbad, Calif.). dNTPs were purchased individually at stock concentrations of 100 mmol/L from New England Biolabs at HPLC-certified >99% purity (Ipswich, Mass.).
Reaction mixtures contained primer, probe and template at an equimolar final concentration of 0.4 μmol/L. Magnesium chloride (MgCl2) was included at a final concentration of 2 mmol/L. Non-limiting dNTPs were included in the reaction mix in excess at a final concentration of 100 μmol/L (dUTP/dTTP was excluded). AmpliTaq Gold DNA polymerase was added at 0.875 U/reaction, 2.5 μl of 10×PCR buffer 2 added and nuclease-free ddH2O added to a final reaction volume of 25 μl. For dUTP inhibition analysis, the volume of ddH2O was further modified to accommodate an additional 1 μl of dUTPase (10 ng/μl) and 1 μl of inhibitor or DMSO control. Thermal profiling and fluorescence detection was performed using the ‘isothermal’ program on board an Applied Biosystems 7500 Real-Time PCR System. For analysis of dNTPs, the thermal profile consisted of an 8 min 37° C. step followed by a 10 min 95° C. step to ‘hot-start’ the Taq polymerase and a primer extension time of up to 30 min at 60° C. depending on the application. Raw fluorescence spectra for 6-FAM was measured using filter A at specified time intervals to follow assay progression using Sequence Detection Software (SDS Version 1.4, Applied Biosystems) and exported and analyzed in Microsoft Excel (Microsoft, Redmond Wash.) and Prism (GraphPad Software, La Jolla Calif.). In all cases, fluorescence values for blank reactions (limiting dNTP omitted) were subtracted to give normalized fluorescence units (NFU) to account for background fluorescence.
The assay employs a DNA polymerase-based approach utilizing an oligonucleotide template with 3 distinct regions: a 3′ primer binding region, a mid-template dUTP/thymidine triphosphate (TTP) detection region and a 5′ 6-Flavin adenine mononucleotide (FAM)-labeled probe binding region that incorporates a black hole quenching moiety.
reaction, the probe and primer hybridize to the oligonucleotide template to form the template:primer:probe complex. When Taq polymerase binds to the primer in the TPP complex and dUTP is present, successful extension of the nascent strand occurs and the inherent 5′ to 3′ exonuclease activity of Taq polymerase cleaves and displaces the 6-FAM-labeled probe in a 5′ to 3′ direction, releasing the 6-FAM fluorophore from its proximity to the three quenchers.

O=c1[nH]c(=O)n([C@H]2C[C@H](O)[C@@H](CO)O2)cc1F [FUdR, fluorodeoxyuridine, reference compound]
number of colonies formed, FUdR alone (HCT116 cells [1]; HCT116, 0.5 μmol/L, vs vehicle-treated controls (Example 23)): no significant effect on number of colonies formed | number of colonies formed, single agent (HCT116 cells [1]; HCT116, PCI 10213 3.1 to 50 μmol/L or FUdR 0.5 μmol/L alone): neither PCI 10213 or the fixed dose of FUdR single agent had any significant effect on the number of colonies formed | number of colonies formed, single agent (SW620 cells [2]): neither PCI 10213 or the fixed dose of FUdR single agent had any significant effect on the number of colonies formed | number of colonies formed, FUdR alone [3]: no significant impact on the number of colonies formed | colonies formed, FUdR alone [4]: no substantial effect on colonies formed | colonies formed, FUdR alone ([5]; all cell lines evaluated, 0.5 to 2.5 μmol/L): dose-dependent decreases in colonies formed | number of colonies formed, FUdR alone [6]: no significant effect on number of colonies formed | colonies formed, FUdR alone (HCT116 cells [7]): dose-dependent decreases in colonies formed

C[C@@H](NS(=O)(=O)CC/C=C/Cn1ccc(=O)[nH]c1=O)c1cccc(OCC2CC2)c1 [PCI 10216, reference compound]
number of colonies formed, compound alone (HCT116 cells [1]; HCT116, 25 and 50 μmol/L single agent): some reduction in the number of colonies formed | number of colonies formed, compound alone (A549 cells [8]): some reduction in the number of colonies formed | number of colonies formed, compound alone (H460 cells): some reduction in the number of colonies formed | combined drug effect with fixed doses of FUdR ([5]; all cell lines examined (Example 22)): strong synergy | decrease in growth / reduction in proliferation (HCT116 cells [9]; HCT116, 72 hours, 100 μmol/L single agent): 67% | lowest concentration with detectable decrease in cell proliferation (HCT116 cells [9]; HCT116, 72 hours, single agent): 6.25 µmol/L | combined effect with 5-FU on growth inhibition (HCT116 cells [9]; HCT116, fixed 25 μmol/L compound plus increasing 5-FU, up to 25 μmol/L 5-FU): additive and synergistic increases in growth inhibition | inhibition at 25 µM (HCT116 cells [10]): 44% | reduction in proliferation (A549 cells [11]; 75 μmol/L single agent): 30% | decrease in growth / reduction in proliferation (A549 cells [11]; 100 μmol/L single agent): 55% | growth inhibition as a single agent (SW620 cells [12]; SW620, 25 μmol/L single agent): 30% | single agent activity / decrease in proliferation (SW620 cells [12]; SW620, 72 hours, 100 μmol/L single agent): 70% | combined effect with 5-FU on growth inhibition (SW620 cells [12]; SW620, fixed 25 μmol/L compound plus increasing 5-FU, up to 25 μmol/L 5-FU): additive and synergistic increases in growth inhibition | decrease in cell proliferation (H1299 cells): 30% | IC50 [13]: 800 nM | % Inhibition ([13]; 1.3 umol/L compound): 60.4% | inhibition at 1.3 µM ([13]; 1.3 umol/L compound): 60% | inhibition at 2.6 µM ([13]; 2.6 umol/L compound): 76.6% | inhibition at 5.2 µM ([13]; 5.2 umol/L compound): 84.6% | inhibition at 10.4 µM ([13]; 10.4 umol/L compound): 95.9% | inhibition at 20.8 µM ([13]; 20.8 umol/L compound): 101% | inhibition at 41.7 µM ([13]; 41.7 umol/L compound): 97.2% | % Inhibition ([13]; 83.3 umol/L compound): 95.4% | inhibition at 83.3 µM ([13]; 83.3 umol/L compound): 95%
